The subject of the assay is E. coli BW25113. Format: cell-based, Escherichia coli. The procedure: Bacterial growth conditions. LB or Mueller Hinton II cation-adjusted broth (MHB II, BBL 212322) was prepared according to manufacturer's instructions and supplemented with arabinose at 0.02% for overnight growth or at indicated concentrations in the description of the figures. Bacterial cultures were grown at 37° C. When appropriate, media was supplemented with kanamycin (50 μg/mL), carbenicillin (50 μg/mL), chloramphenicol (12.5 or 25 μg/mL), hygromycin (200 μg/mL), and/or gentamicin (10 μg/mL).
Peptide sensitivity and MIC assays. Lyophilized peptides (Smartox Biotechnology, CPC Scientific. ABclonal) were solubilized to 10 mM in Tris buffer, pH 8, prior to making a 2-fold dilution series in MHBII cation adjusted broth with highest final assay concentration of 400-800 μM. Bacteria were grown to log phase and added to final OD600˜0.001. The final EDTA concentration was 0.5 mM for E. coli strains and 0.125 mM for USA300. The final volume of 10 μL/well in a 384 well black, clear bottom plate (Corning) was spun <1 min at <250×g and then incubated at 37° C. After 4 h, an equal volume (10 μL) of BacTiter-Glo™ (Promega) was added to each well and luminescence was read after 5 min on an EnVision plate reader (PerkinElmer). To measure the minimal inhibitory concentrations (MICs), bacteria from fresh overnight plates or log phase cultures were diluted with or without EDTA and peptides as described above to final OD600˜0.0002. Plates were incubated at 37° C. for 20 h before measuring OD600 with an EnVision plate reader.

Values after ≈ are worked out from the molar mass of the structure shown. Like-named read-outs stand apart in the source and are kept apart here. Square brackets hold non-standard residues; d marks the D form. Peptide text beside a SMILES is read from it. Bip = N[C@@H](Cc1ccc(-c2ccccc2)cc1)C(=O)O; NMeF = CN[C@@H](Cc1ccccc1)C(=O)O; NMeM = CN[C@@H](CCSC)C(=O)O; Pip = O=C(O)[C@@H]1CCCCN1; NMeA = CN[C@@H](C)C(=O)O; Dap = NC[C@H](N)C(=O)O; Aib = CC(C)(N)C(=O)O

Consider 15 compounds from US20220135622A1, “ANTIBACTERIAL PEPTIDES AND METHODS OF USE” (priority 2019, published 2022).

Consider `CSCC[C@@H](C(=O)N[C@@H](CN)C(=O)N[C@@H](Cc1ccccc1)C(=O)N[C@@H](CCCNC(=N)N)C(=O)N[C@@H](CCCNC(=N)N)C(=O)N[C@@H](Cc1ccccc1)C(=O)N[C@@H](CC(C)C)C(=O)N[C@@H](CCC(=O)O)C(=O)N[C@@H](CCCCN)C(=O)N[C@@H](Cc1c[nH]c2ccccc12)C(=O)NCC(=O)N[C@@H](CC(C)C)C(=O)N[C@@H](CC(C)C)C(=O)N[C@@H](CCCNC(=N)N)C(N)=O)N(C)C(=O)[C@@H]1CCCN1C(=O)[C@H](Cc1ccc(O)cc1)NC(C)=O` [compound 95] (Ac-YP[NMeM][Dap]FRRFLEKWGLLR-NH2), for which, for the setting “Table 8”, the “MIC E. coli BW25113” value was determined as 50.0 µM (≈ 108 µg/mL).
For the compound `CSCC[C@H](NC(=O)[C@H](CN)NC(=O)[C@H](CCSC)N(C)C(=O)[C@@H]1CCCN1C(=O)[C@H](Cc1ccc(O)cc1)NC(C)=O)C(=O)N[C@@H](CCCNC(=N)N)C(=O)N[C@@H](CCCNC(=N)N)C(=O)N[C@@H](Cc1ccccc1)C(=O)N[C@@H](CC(C)C)C(=O)N[C@@H](CCC(=O)O)C(=O)N[C@@H](CCCCN)C(=O)N[C@@H](Cc1c[nH]c2ccccc12)C(=O)NCC(=O)N[C@@H](CC(C)C)C(=O)N[C@@H](CC(C)C)C(=O)N[C@@H](CCCNC(=N)N)C(N)=O` [compound 96] (Ac-YP[NMeM][Dap]MRRFLEKWGLLR-NH2), the “MIC E. coli BW25113” value (Table 8) stood at 50.0 µM (≈ 107 µg/mL).
Same read-out and setting: for `CSCC[C@@H](C(=O)N[C@@H](CN)C(=O)N(C)[C@@H](C)C(=O)N[C@@H](CCCNC(=N)N)C(=O)N[C@@H](CCCNC(=N)N)C(=O)N[C@@H](Cc1ccccc1)C(=O)N[C@@H](CC(C)C)C(=O)N[C@@H](CCC(=O)O)C(=O)N[C@@H](CCCCN)C(=O)N[C@@H](Cc1c[nH]c2ccccc12)C(=O)NCC(=O)N[C@@H](CC(C)C)C(=O)N[C@@H](CC(C)C)C(=O)N[C@@H](CCCNC(=N)N)C(N)=O)N(C)C(=O)[C@@H]1CCCN1C(=O)[C@H](Cc1ccc(O)cc1)NC(C)=O` [compound 97] (Ac-YP[NMeM][Dap][NMeA]RRFLEKWGLLR-NH2) the value was 200.0 µM (≈ 418 µg/mL); for `CSCC[C@@H](C(=O)N[C@@H](CCCNC(=N)N)C(=O)N[C@@H](CCCNC(=N)N)C(=O)N[C@@H](Cc1ccccc1)C(=O)N[C@@H](CC(C)C)C(=O)N[C@@H](CCC(=O)O)C(=O)N[C@@H](CCCCN)C(=O)N[C@@H](Cc1c[nH]c2ccccc12)C(=O)NCC(=O)N[C@@H](CC(C)C)C(=O)N[C@@H](CC(C)C)C(=O)N[C@@H](CCCNC(=N)N)C(N)=O)N(C)C(=O)[C@H](CN)NC(=O)[C@H](CCSC)N(C)C(=O)[C@@H]1CCCN1C(=O)[C@H](Cc1ccc(O)cc1)NC(C)=O` [compound 98] (Ac-YP[NMeM][Dap][NMeM]RRFLEKWGLLR-NH2), 25.0 µM (≈ 53.8 µg/mL).
Regarding `CC(=O)N[C@@H](Cc1ccc(O)cc1)C(=O)N1CCC[C@H]1C(=O)N(C)[C@@H](Cc1ccccc1)C(=O)N[C@H](C(=O)N(C)[C@@H](C)C(=O)N[C@@H](CCCNC(=N)N)C(=O)N[C@@H](CCCNC(=N)N)C(=O)N[C@@H](Cc1ccccc1)C(=O)N[C@@H](CC(C)C)C(=O)N[C@@H](CCC(=O)O)C(=O)N[C@@H](CCCCN)C(=O)N[C@@H](Cc1c[nH]c2ccccc12)C(=O)NCC(=O)N[C@@H](CC(C)C)C(=O)N[C@@H](CC(C)C)C(=O)N[C@@H](CCCNC(=N)N)C(N)=O)[C@@H](C)O` [compound 99] (Ac-YP[NMeF]T[NMeA]RRFLEKWGLLR-NH2), the “MIC E. coli BW25113” value (Table 8) stood at 200.0 µM (≈ 425 µg/mL).
`CSCC[C@@H](C(=O)N[C@@H](CN)C(=O)N(C)[C@@H](Cc1ccccc1)C(=O)N[C@@H](CCCNC(=N)N)C(=O)N[C@@H](CCCNC(=N)N)C(=O)N[C@@H](Cc1ccccc1)C(=O)N[C@@H](CC(C)C)C(=O)N[C@@H](CCC(=O)O)C(=O)N[C@@H](CCCCN)C(=O)N[C@@H](Cc1c[nH]c2ccccc12)C(=O)NCC(=O)N[C@@H](CC(C)C)C(=O)N[C@@H](CC(C)C)C(=O)N[C@@H](CCCNC(=N)N)C(N)=O)N(C)C(=O)[C@@H]1CCCN1C(=O)[C@H](Cc1ccc(O)cc1)NC(C)=O` [compound 100] (Ac-YP[NMeM][Dap][NMeF]RRFLEKWGLLR-NH2): the “MIC E. coli BW25113” value (Table 8) came to 25.0 µM (≈ 54.2 µg/mL).
With `CSCC[C@H](NC(=O)[C@H](CN)NC(=O)[C@H](Cc1ccc(O)cc1)NC(C)=O)C(=O)N1CCC[C@H]1C(=O)N[C@@H](Cc1ccccc1)C(=O)N[C@@H](CCCNC(=N)N)C(=O)N[C@@H](CCCNC(=N)N)C(=O)N[C@@H](Cc1ccccc1)C(=O)N[C@@H](CC(C)C)C(=O)N[C@@H](CCC(=O)O)C(=O)N[C@@H](CCCCN)C(=O)N[C@@H](Cc1c[nH]c2ccccc12)C(=O)NCC(=O)N[C@@H](CC(C)C)C(=O)N[C@@H](CC(C)C)C(=O)N[C@@H](CCCNC(=N)N)C(N)=O` [compound 102] (Ac-Y[Dap]MPFRRFLEKWGLLR-NH2), the “MIC E. coli BW25113” value (BW25113) was 25.0 µM (≈ 53.5 µg/mL).
With `CSCC[C@H](NC(=O)[C@H](CN)NC(=O)[C@@H]1CCCN1C(=O)[C@H](Cc1ccc(O)cc1)NC(C)=O)C(=O)N[C@@H](Cc1ccccc1)C(=O)N[C@@H](CCCNC(=N)N)C(=O)N[C@@H](CCCNC(=N)N)C(=O)N[C@@H](Cc1ccccc1)C(=O)N[C@@H](CC(C)C)C(=O)N[C@@H](CCC(=O)O)C(=O)N[C@@H](CCCCN)C(=O)N[C@@H](Cc1c[nH]c2ccccc12)C(=O)NCC(=O)N[C@@H](CC(C)C)C(=O)N[C@@H](CC(C)C)C(=O)N[C@@H](CCCNC(=N)N)C(N)=O` [compound 103] (Ac-YP[Dap]MFRRFLEKWGLLR-NH2), the “MIC E. coli BW25113” value (BW25113) is below 12.5 µM.
Consider `CSCC[C@H](NC(=O)[C@@H]1CCCN1C(=O)[C@H](Cc1ccc(O)cc1)NC(C)=O)C(=O)N[C@@H](Cc1ccccc1)C(=O)N[C@@H](CN)C(=O)N[C@@H](CCCNC(=N)N)C(=O)N[C@@H](CCCNC(=N)N)C(=O)N[C@@H](Cc1ccccc1)C(=O)N[C@@H](CC(C)C)C(=O)N[C@@H](CCC(=O)O)C(=O)N[C@@H](CCCCN)C(=O)N[C@@H](Cc1c[nH]c2ccccc12)C(=O)NCC(=O)N[C@@H](CC(C)C)C(=O)N[C@@H](CC(C)C)C(=O)N[C@@H](CCCNC(=N)N)C(N)=O` [compound 104] (Ac-YPMF[Dap]RRFLEKWGLLR-NH2), for which the “MIC E. coli BW25113” value (Table 8) was determined as 200 µM (≈ 428 µg/mL).
`CSCC[C@H](NC(=O)[C@@H]1CCCN1C(=O)[C@H](Cc1ccc(O)cc1)NC(C)=O)C(=O)N[C@@H](CCCNC(=N)N)C(=O)N[C@@H](Cc1ccccc1)C(=O)N[C@@H](CN)C(=O)N[C@@H](CCCNC(=N)N)C(=O)N[C@@H](Cc1ccccc1)C(=O)N[C@@H](CC(C)C)C(=O)N[C@@H](CCC(=O)O)C(=O)N[C@@H](CCCCN)C(=O)N[C@@H](Cc1c[nH]c2ccccc12)C(=O)NCC(=O)N[C@@H](CC(C)C)C(=O)N[C@@H](CC(C)C)C(=O)N[C@@H](CCCNC(=N)N)C(N)=O` [compound 105] (Ac-YPMRF[Dap]RFLEKWGLLR-NH2): the “MIC E. coli BW25113” value (BW25113) worked out at 50 µM (≈ 107 µg/mL).
Still for that read-out and setting: for `CSCC[C@H](NC(=O)[C@H](CN)NC(=O)[C@H](CCSC)NC(=O)[C@@H]1CCCN1C(=O)[C@H](CCCNC(=N)N)NC(C)=O)C(=O)N[C@@H](CCCNC(=N)N)C(=O)N[C@@H](CCCNC(=N)N)C(=O)N[C@@H](Cc1ccc(-c2ccccc2)cc1)C(=O)N[C@@H](CC(C)C)C(=O)N[C@@H](C)C(=O)N[C@@H](CCCCN)C(=O)N[C@@H](Cc1c[nH]c2ccccc12)C(=O)NCC(=O)N[C@@H](CC(C)C)C(N)=O` [compound 217] (Ac-RPM[Dap]MRR[Bip]LAKWGL-NH2) the value was 12.5 µM (≈ 23.3 µg/mL).
Consider `CSCC[C@H](NC(=O)[C@H](CN)NC(=O)[C@H](CCSC)NC(=O)[C@@H]1CCCN1C(=O)[C@H](CCCNC(=N)N)NC(C)=O)C(=O)N[C@@H](CCCNC(=N)N)C(=O)N[C@@H](CCCNC(=N)N)C(=O)N[C@@H](Cc1ccc(-c2ccccc2)cc1)C(=O)N[C@@H](CC(C)C)C(=O)N[C@@H](CCC(=O)O)C(=O)N[C@@H](CCCCN)C(=O)N[C@@H](CCCNC(=N)N)C(=O)NCC(=O)N[C@@H](CC(C)C)C(N)=O` [compound 218] (Ac-RPM[Dap]MRR[Bip]LEKRGL-NH2), for which the “MIC E. coli BW25113” value (Table 8) is 200.0 µM (≈ 379 µg/mL).
As for `CSCC[C@H](NC(=O)[C@H](CN)NC(=O)[C@H](CCSC)NC(=O)[C@@H]1CCCN1C(=O)[C@H](CCCNC(=N)N)NC(C)=O)C(=O)N[C@@H](CCCNC(=N)N)C(=O)N[C@@H](CCCNC(=N)N)C(=O)N[C@@H](Cc1ccc(-c2ccccc2)cc1)C(=O)N[C@@H](CC(C)C)C(=O)N[C@@H](C)C(=O)N[C@@H](CCCCN)C(=O)N[C@@H](CCCNC(=N)N)C(=O)NCC(=O)N[C@@H](CC(C)C)C(N)=O` [compound 219] (Ac-RPM[Dap]MRR[Bip]LAKRGL-NH2), where the note is “BW25113”, the “MIC E. coli BW25113” value stood at 25.0 µM (≈ 45.9 µg/mL).
On the same count and under the same terms, for `CSCC[C@H](NC(=O)[C@@H]1CCCN1C(=O)[C@H](CCCNC(=N)N)NC(C)=O)C(=O)N[C@H](C(=O)NC(C)(C)C(=O)N[C@@H](CCCNC(=N)N)C(=O)N[C@@H](CCCNC(=N)N)C(=O)N[C@@H](Cc1c[nH]c2ccccc12)C(=O)N[C@@H](CC(C)C)C(=O)N[C@@H](C)C(=O)N[C@@H](CCCCN)C(=O)N[C@@H](CCCNC(=N)N)C(=O)NCC(=O)N[C@@H](CC(C)C)C(N)=O)[C@@H](C)O` [compound 220] (Ac-RPMT[Aib]RRWLAKRGL-NH2) the value was 100.0 µM (≈ 177 µg/mL).
Same read-out and setting: for `CSCC[C@H](NC(=O)[C@@H]1CCCCN1C(=O)[C@H](CCCNC(=N)N)NC(C)=O)C(=O)N[C@H](C(=O)N[C@@H](C)C(=O)N[C@@H](CCCNC(=N)N)C(=O)N[C@@H](CCCNC(=N)N)C(=O)N[C@@H](Cc1c[nH]c2ccccc12)C(=O)N[C@@H](CC(C)C)C(=O)N[C@@H](C)C(=O)N[C@@H](CCCCN)C(=O)N[C@@H](CCCNC(=N)N)C(=O)NCC(=O)N[C@@H](CC(C)C)C(N)=O)[C@@H](C)O` [compound 221] (Ac-R[Pip]MTARRWLAKRGL-NH2) the value was 200.0 µM (≈ 353 µg/mL).
